The text below walks through data of patent US20050032124A1, “Identification of genotype-selective agents for treating Huntington's disease” (priority 2003, published 2005).

SMILES strings stand for the structures. Converted amounts (≈) assume the structure as drawn. Read-outs that look alike come from different tables or passages of the source.

Assay in all cases: Calcein AM viability assay, dilution-series retest
For one assay, the system named is TIP5/TERT/E6/E7 cells. It is filed as cell-based, human. The settings on record: for IC50: Homo sapiens, 48 h, read-out: IC50, TIP5-TERT/E6E7. An excerpt:
(§1) In a third series, cell lines derived from independently prepared human TIP5 foreskin fibroblasts created by introducing cDNA constructs encoding hTERT, LT, ST and RASV12 (Lessnick et al., 2002, Cancer Cell 1, 393-401) were used. These cell lines were called, respectively: TIP5/TERT, TIP5/TERT/LT, TIP5/TERT/LT/ST, and TIP5/TERT/LT/ST/RAS^V12. In a fourth series, cell lines derived from TIP5 fibroblasts created by introducing cDNA constructs encoding hTERT, E6, E7, ST and RAS^V12 were used. These cell lines were named, respectively: TIP5/TERT/E6, TIP5/TERT/E6/E7, TIP5/TERT/E6/E7/ST, and TIP5/TERT/E6/E7/ST/RAS^V12. In this series, HPV E6 and E7, which inactivate p53 and RB, respectively, serve a similar function as LT in the previous series. However, by using HPV E6 and E7, Applicants were able to observe the effects of inactivating, separately and independently, p53 and RB. Results of a large-scale screen for compounds that display selective killing of these engineered tumorigenic cell lines are described in the examples that follow.
(§2) Calcein acetoxylmethyl ester (AM) is a cell membrane-permeable, non-fluorescent compound that is cleaved by intracellular esterases to form the anionic, cell-impermeable, fluorescent compound calcein. Viable cells are stained by calcein because of the presence of intracellular esterases and because the intact plasma membrane prevents fluorescent calcein from leaking out of cells (Wang et al., 1993, supra). Cells were seeded in 384-well plates using a Zymark Sciclone ALH, treated with each compound in triplicate at 4 μg/mL in the primary screen for two days, washed with phosphate-buffered saline on a Packard Minitrak with a 384-well washer and incubated for four hours with 0.7 μg/mL calcein (Molecular Probes). Total fluorescence intensity in each well was recorded on a Packard Fusion platereader, and converted to a percent inhibition of signal by subtracting the instrument background and dividing by the average signal obtained when cells were not treated with any compound.
(§3) Replica daughter plates were prepared with a Zymark Sciclone ALH and integrated Twister II by diluting stock plates 50 fold in medium lacking serum and pen/strep to obtain a compound concentration in daughter plates of 80 μg/ml with 2% DMSO. Assay plates were prepared by seeding cells in black, clear bottom 384-well plates in columns 1-23 (6000 cells/well in 57 μl) using a syringe bulk dispenser. Columns 3-22 were treated with compounds from a daughter library plate by transferring 3 μl from the daughter library plate using 384-position fixed cannula array. The final compound concentrations in assay plates were thus 4 μg/ml. The assay plates were incubated for 48 hours at 37° C. in humidified incubator containing 5% CO2. Plate processing for the calcein AM viability assay was performed using an integrated Minitrak/Sidetrak robotic system from Packard Bioscience (Perkin Elmer). Assay plates were washed with phosphate buffered saline, and 20 μl of calcein AM (0.7 μg/ml) per well was added. Plates were incubated at room temperature for 4 hours. Fluorescence intensity was determined using a Fusion platereader with filters centered on an excitation of 485 nm and an emission of 535 nm.
(§4) Compounds to be retested were purchased from manufacturers. Stocks were prepared in DMSO at a concentration of 1 mg/ml in 384-well polypropylene plates with a 16-point, two-fold dilution dose curve of each compound in a column, in duplicates. Column 1-2 and 23-24 were left empty for controls. Daughter retest plates were prepared from stock retest plate by diluting 66.6 fold in DMEM in 384-well deep-deep well plates (4.5 μl transfer into 300 μl). Cells were seeded at a density of 6000 per well in 40 μl, and 20 μl was added from a daughter retest plate. The plates were incubated for two days at 37° C. with 5% CO2.
(§5) Mean RFU (relative fluorescence units) for untreated cells was calculated by averaging columns 1, 2, and 23 (wells with cells but lacking compounds). […]

Another assay relates to TIP5/TERT/E6/E7/ST cells. It is filed as cell-based, human. The settings on record: Homo sapiens, 48 h, read-out: IC50, TIP5-TERT/E6E7 ST.
Excerpt: as §1, §2, §3, §4, §5

Assay [1] deals with TIP5/TERT/E6/E7/ST/RAS^V12 cells. It is filed as cell-based, human. The following applies: Homo sapiens, 48 h, read-out: IC50, TIP5-TERT/E6E7 ST/Ras^V12.
Excerpt: as §1, §2, §3, §4, §5

The test system of the next assay is TIP5/TERT cells. It is filed as cell-based, human. The following applies: Homo sapiens, 48 h, read-out: IC50, TIP5-TERT.
Excerpt: as §1, §2, §3, §4, §5

In another assay the test system is TIP5/TERT/LT cells. It is filed as cell-based, human. The following applies: Homo sapiens, 48 h, read-out: IC50, TIP5 TERT/LT.
Excerpt: as §1, §2, §3, §4, §5

A further assay has as its system BJ-TERT cells. The format is cell-based. The following applies: Homo sapiens, 48 h, read-out: IC50, BJ-TERT.
Excerpt: Described here is work carried out to identify compounds with increased potency or activity in the presence of hTERT, LT, ST, E6, E7 or RAS^V12. Engineered cell lines with these genetic elements were used to screen […] compounds, including 20,000 compounds from a combinatorial library, 1,990 compounds from the National Cancer Institute diversity collection, and 1,540 biologically active known compounds that were selected and purchased by Applicant and formatted into a screenable collection. The primary screen tested (in quadruplicate) the effect of treating tumorigenic BJ-TERT/LT/ST/RAS^V12 engineered tumorigenic cells with each compound for 48 hours at a concentration of 4 μg/mL, corresponding to 10 μM for a compound with a molecular weight of 400, which is the approximate median molecular weight of the libraries. Cell viability was measured using the dye calcein acetoxymethyl ester (calcein AM) (Wang et al., 1993, Hum. Immunol. 3 7, 264-270), which is a non-fluorescent compound that freely diffuses into cells. In live cells, calcein AM is cleaved by intracellular esterases, forming the anionic fluorescent derivative calcein, which cannot diffuse out of live cells. […] The IC50 value (concentration required to inhibit 50% of the calcein AM signal) was calculated for each compound in each cell line (Table 1). […] Following is a more detailed analysis of these nine compounds.
as §2, §3
Compounds to be retested were purchased from manufacturers. Stocks were prepared in DMSO at a concentration of 1 mg/ml in 384-well polypropylene plates with a 16-point, two-fold dilution dose curve of each compound in a column, in duplicates. Column 1-2 and 23-24 were left empty for controls. […]

[2] abbreviates: TIP5-TERT/E6E7 cells, 16-point two-fold dilution, two days.
The mark [3] stands for this setting: TIP5-TERT/E6E7/ST cells, 16-point two-fold dilution, two days.
[4] abbreviates: TIP5-TERT/E6E7/ST/Ras^V12 cells, 16-point two-fold dilution, two days.
The mark [5] stands for this setting: TIP5-TERT cells, 16-point two-fold dilution, two days.
[6] abbreviates: TIP5 TERT/LT cells, 16-point two-fold dilution, two days.
[7] abbreviates: BJ-TERT cells, 16-point two-fold dilution, two days.

For the compound `COc1ccc(C[C@H]2C(=O)N[C@@H](C)C(=O)N(C)[C@@H]3C(=O)N(C)[C@@H](Cc4ccc(O)c(c4)Oc4ccc(cc4)[C@@H]3O)C(=O)N[C@H](C)C(=O)N[C@@H](C)C(=O)N2C)cc1` [Bouvardin], the IC50 is 0.039 µg/mL (≈ 0.0505 µM) in the assay on TIP5/TERT/E6/E7 cells; 0.039 µg/mL (≈ 0.0505 µM) in the assay with TIP5/TERT/E6/E7/ST cells; 0.078 µg/mL (≈ 0.101 µM) in assay [1]; > 5 µg/mL in the assay with TIP5/TERT cells; 0.312 µg/mL (≈ 0.404 µM) in the assay with TIP5/TERT/LT cells; 0.078 µg/mL (≈ 0.101 µM) in the assay on BJ-TERT cells.
`CC[C@@]1(O)C(=O)OCc2c1cc1n(c2=O)Cc2cc3ccccc3nc2-1` [Camptothecin]: the “activity in cells lacking RB function (via expression of E7)” value in the assay on TIP5/TERT/E6/E7 cells is recorded as “partially active”. For the same compound, the IC50 is 0.625 µg/mL (≈ 1.79 µM) in the assay on TIP5/TERT/E6/E7 cells (setting [2]); 0.156 µg/mL (≈ 0.448 µM) with TIP5/TERT/E6/E7/ST cells (setting [3]); 0.156 µg/mL (≈ 0.448 µM) in assay [1] (setting [4]); > 5 µg/mL in the assay on TIP5/TERT cells (setting [5]); > 5 µg/mL with TIP5/TERT/LT cells (setting [6]); > 5 µg/mL in the assay on BJ-TERT cells (setting [7]).
On to `COc1cccc2c1C(=O)c1c(O)c3c(c(O)c1C2=O)C[C@@](O)(C(C)=O)C[C@@H]3O[C@H]1C[C@H](N)[C@H](O)[C@H](C)O1` [Daunorubicin], for which the IC50 was 0.625 µg/mL (≈ 1.18 µM) with TIP5/TERT/E6/E7 cells; 0.625 µg/mL (≈ 1.18 µM) with TIP5/TERT/E6/E7/ST cells; 0.625 µg/mL (≈ 1.18 µM) in assay [1]; > 5 µg/mL in the assay with TIP5/TERT cells; 1.25 µg/mL (≈ 2.37 µM) in the assay on TIP5/TERT/LT cells; 1.25 µg/mL (≈ 2.37 µM) in the assay on BJ-TERT cells.
Consider `COc1cccc2c1C(=O)c1c(O)c3c(c(O)c1C2=O)C[C@@](O)(C(=O)CO)C[C@@H]3O[C@H]1C[C@H](N)[C@H](O)[C@H](C)O1` [Doxorubicin], for which the IC50 in the assay with TIP5/TERT/E6/E7 cells (setting [2]) is 1.25 µg/mL (≈ 2.3 µM); in the assay on TIP5/TERT/E6/E7/ST cells (setting [3]) it was 1.25 µg/mL (≈ 2.3 µM); in assay [1] (setting [4]), 1.25 µg/mL (≈ 2.3 µM); with TIP5/TERT cells (setting [5]), > 5 µg/mL; in the assay with TIP5/TERT/LT cells (setting [6]) it was 1.25 µg/mL (≈ 2.3 µM); in the assay with BJ-TERT cells (setting [7]), 1.25 µg/mL (≈ 2.3 µM).
On to `CS[C@H]1SC[C@H]2C(=O)N(C)[C@@H](C(C)C)C(=O)OC[C@@H](NC(=O)c3cnc4ccccc4n3)C(=O)N[C@@H](C)C(=O)N(C)[C@@H]1C(=O)N(C)[C@@H](C(C)C)C(=O)OC[C@@H](NC(=O)c1cnc3ccccc3n1)C(=O)N[C@@H](C)C(=O)N2C` [Echinomycin], for which the IC50 in the assay on TIP5/TERT/E6/E7 cells is 0.048 µg/mL (≈ 0.0436 µM); with TIP5/TERT/E6/E7/ST cells, 0.048 µg/mL (≈ 0.0436 µM); in assay [1], 0.0048 µg/mL (≈ 0.00436 µM); with TIP5/TERT cells, > 5 µg/mL; with TIP5/TERT/LT cells, 5 µg/mL (≈ 4.54 µM); in the assay with BJ-TERT cells it was 0.312 µg/mL (≈ 0.283 µM).
On to `CCOc1ccccc1-n1c(C(C)N2CCN(C(=O)COc3ccc(Cl)cc3)CC2)nc2ccccc2c1=O` (stereo not shown) [Erastin], for which the IC50 with TIP5/TERT/E6/E7 cells (setting [2]) is > 5 µg/mL; in the assay on TIP5/TERT/E6/E7/ST cells (setting [3]), > 5 µg/mL; in assay [1] (setting [4]) it was 5 µg/mL (≈ 9.14 µM); in the assay on TIP5/TERT cells (setting [5]), > 5 µg/mL; in the assay with TIP5/TERT/LT cells (setting [6]), > 5 µg/mL; in the assay on BJ-TERT cells (setting [7]) it was > 5 µg/mL.
As to `O=C1c2c(O)ccc(O)c2C(=O)c2c(NCCNCCO)ccc(NCCNCCO)c21` [Mitoxantrone], the IC50 in the assay with TIP5/TERT/E6/E7 cells (setting [2]) was 0.625 µg/mL (≈ 1.41 µM); in the assay with TIP5/TERT/E6/E7/ST cells (setting [3]), 0.625 µg/mL (≈ 1.41 µM); in assay [1] (setting [4]), 1.25 µg/mL (≈ 2.81 µM); with TIP5/TERT cells (setting [5]), > 5 µg/mL; in the assay on TIP5/TERT/LT cells (setting [6]) it was 1.25 µg/mL (≈ 2.81 µM); with BJ-TERT cells (setting [7]) it was 1.25 µg/mL (≈ 2.81 µM).
For `NC(=O)c1cn([C@@H]2O[C@H](CO)[C@@H](O)[C@H]2O)c2ncnc(N)c12` [Sangivamycin], the IC50 was 0.078 µg/mL (≈ 0.252 µM) in the assay on TIP5/TERT/E6/E7 cells; 0.078 µg/mL (≈ 0.252 µM) in the assay with TIP5/TERT/E6/E7/ST cells; 0.078 µg/mL (≈ 0.252 µM) in assay [1]; 1.25 µg/mL (≈ 4.04 µM) with TIP5/TERT cells; 0.312 µg/mL (≈ 1.01 µM) in the assay with TIP5/TERT/LT cells; 0.039 µg/mL (≈ 0.126 µM) in the assay with BJ-TERT cells.
